Data taken from ChEMBL document CHEMBL1201862, “PubChem BioAssay data set” (2004).
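Briefly, cells in 96-well plates were exposed to five compound concentrations for 48 h, and endpoints were estimated by linear interpolation. At the GI50, growth is halved.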 Active and inactive are the calls of the source. Cut-off read from the data, not from the text of the source: active = GI50 up to about 1.1 µM and inactive = higher.

How the values were obtained:
Assay in all cases: inhibition of tumour cell growth, NCI panel, 48 h
SK-MEL-5 = system: SK-MEL-5
786-0 = system: 786-0
NCI-H23 = system: NCI-H23
A498 = system: A498
NCI-H226 = system: NCI-H226
MDA-MB-231 = system: MDA-MB-231
IGROV-1 = system: IGROV-1
Hs-578T = system: Hs-578T
CCRF-CEM = system: CCRF-CEM
TK-10 = system: TK-10
SNB-75 = system: SNB-75
EKVX = system: EKVX
OVCAR-5 = system: OVCAR-5
SK-MEL-28 = system: SK-MEL-28
SK-OV-3 = system: SK-OV-3
UO-31 = system: UO-31
M14 = system: M14
ACHN = system: ACHN
MDA-MB-435 = system: MDA-MB-435
SN12C = system: SN12C
COLO 205 = system: COLO 205
HOP-92 = system: HOP-92
SK-MEL-2 = system: SK-MEL-2
SNB-19 = system: SNB-19
SF-539 = system: SF-539
NCI-H460 = system: NCI-H460
NCI-H522 = system: NCI-H522
HT-29 = system: HT-29
Malme-3M = system: Malme-3M
UACC-62 = system: UACC-62
DU-145 = system: DU-145
CAKI-1 = system: CAKI-1
MDA-N = system: MDA-N
SF-268 = system: SF-268
A549 = system: A549
SF-295 = system: SF-295
UACC-257 = system: UACC-257
BT-549 = system: BT-549
RXF 393 = system: RXF 393
HCT-116 = system: HCT-116
HOP-62 = system: HOP-62
MCF7 = system: MCF7
OVCAR-3 = system: OVCAR-3
SW-620 = system: SW-620
MOLT-4 = system: MOLT-4
K562 = system: K562
T47D = system: T47D
RPMI-8226 = system: RPMI-8226
KM12 = system: KM12
HCC 2998 = system: HCC 2998
NCI/ADR-RES = system: NCI/ADR-RES
SR = system: SR
PC-3 = system: PC-3
U-251 = system: U-251
HCT-15 = system: HCT-15
LOX IMVI = system: LOX IMVI
OVCAR-8 = system: OVCAR-8
OVCAR-4 = system: OVCAR-4
HL-60 = system: HL-60

With `CC(=O)n1nc(-c2[nH]c(C)c(-c3nn(C(C)=O)c(=S)o3)c2C)oc1=S` the GI50 (SK-MEL-5) was > 100 µM (inactive), the GI50 (786-0) was 97.7 µM (inactive) and the GI50 (NCI-H23) was > 100 µM (inactive). The GI50 (A498) was > 100 µM (inactive), the GI50 (NCI-H226) was > 54 µM (inactive) and the GI50 (MDA-MB-231) was > 100 µM (inactive). The GI50 (IGROV-1) was > 100 µM (inactive), the GI50 (Hs-578T) was > 100 µM (inactive) and the GI50 (CCRF-CEM) was 12.9 µM (inactive). For the same molecule, the GI50 (TK-10) was > 100 µM (inactive), the GI50 (SNB-75) was > 32.3 µM (inactive) and the GI50 (EKVX) was > 100 µM (inactive). For the same molecule, the GI50 (OVCAR-5) was > 100 µM (inactive), the GI50 (SK-MEL-28) was > 100 µM (inactive) and the GI50 (SK-OV-3) was > 100 µM (inactive). For the same molecule, the GI50 (UO-31) was > 100 µM (inactive), the GI50 (M14) was > 100 µM (inactive) and the GI50 (ACHN) was > 100 µM (inactive). The GI50 (MDA-MB-435) was > 100 µM (inactive), the GI50 (SN12C) was > 100 µM (inactive) and the GI50 (COLO 205) was > 100 µM (inactive). For the same molecule, the GI50 (HOP-92) was > 100 µM (inactive), the GI50 (SK-MEL-2) was > 62.4 µM (inactive) and the GI50 (SNB-19) was > 100 µM (inactive). For the same molecule, the GI50 (SF-539) was 81.7 µM (inactive), the GI50 (NCI-H460) was > 100 µM (inactive) and the GI50 (NCI-H522) was > 85.7 µM (inactive). The GI50 (HT-29) was > 100 µM (inactive), the GI50 (Malme-3M) was 30.1 µM (inactive) and the GI50 (UACC-62) was > 100 µM (inactive). For the same molecule, the GI50 (DU-145) was > 100 µM (inactive), the GI50 (CAKI-1) was > 100 µM (inactive) and the GI50 (MDA-N) was > 100 µM (inactive). For the same molecule, the GI50 (SF-268) was > 100 µM (inactive), the GI50 (A549) was > 100 µM (inactive) and the GI50 (SF-295) was > 100 µM (inactive). The GI50 (UACC-257) was > 100 µM (inactive), the GI50 (BT-549) was > 100 µM (inactive) and the GI50 (RXF 393) was > 100 µM (inactive). The GI50 (HCT-116) was > 100 µM (inactive), the GI50 (HOP-62) was > 100 µM (inactive) and the GI50 (MCF7) was > 100 µM (inactive). For the same molecule, the GI50 (OVCAR-3) was > 100 µM (inactive), the GI50 (SW-620) was > 100 µM (inactive) and the GI50 (MOLT-4) was 6.89 µM (inactive). The GI50 (K562) was > 100 µM (inactive), the GI50 (T47D) was > 100 µM (inactive) and the GI50 (RPMI-8226) was > 56.6 µM (inactive). The GI50 (KM12) was > 100 µM (inactive), the GI50 (HCC 2998) was > 100 µM (inactive) and the GI50 (NCI/ADR-RES) was > 100 µM (inactive). For the same molecule, the GI50 (SR) was 41 µM (inactive), the GI50 (PC-3) was > 100 µM (inactive) and the GI50 (U-251) was > 100 µM (inactive). The GI50 (HCT-15) was greater than 100 µM, the GI50 (LOX IMVI) was 82.8 µM (inactive) and the GI50 (OVCAR-8) was > 100 µM (inactive). For the same molecule, the GI50 (OVCAR-4) was > 100 µM (inactive).
For `CC(=O)OCC12C(OC(C)=O)C[C@@H](C)C3(CC(c4ccoc4)OC3=O)C1CCC(O)C21CO1` (stereo partly drawn), the GI50 (SK-MEL-5) was > 100 µM (inactive), the GI50 (786-0) was > 100 µM (inactive) and the GI50 (NCI-H23) was > 100 µM (inactive). The GI50 (A498) was > 100 µM (inactive), the GI50 (NCI-H226) was > 100 µM (inactive) and the GI50 (MDA-MB-231) was > 100 µM (inactive). The GI50 (IGROV-1) was > 100 µM (inactive), the GI50 (Hs-578T) was > 100 µM (inactive) and the GI50 (TK-10) was > 100 µM (inactive). For the same molecule, the GI50 (SNB-75) was > 100 µM (inactive), the GI50 (OVCAR-5) was > 100 µM (inactive) and the GI50 (SK-MEL-28) was > 100 µM (inactive). The GI50 (UO-31) was > 100 µM (inactive), the GI50 (M14) was > 100 µM (inactive) and the GI50 (ACHN) was > 100 µM (inactive). For the same molecule, the GI50 (MDA-MB-435) was > 100 µM (inactive), the GI50 (SN12C) was > 100 µM (inactive) and the GI50 (COLO 205) was > 100 µM (inactive). The GI50 (HOP-92) was > 100 µM (inactive), the GI50 (SK-MEL-2) was > 100 µM (inactive) and the GI50 (SNB-19) was > 100 µM (inactive). For the same molecule, the GI50 (SF-539) was > 100 µM (inactive), the GI50 (NCI-H460) was > 10 µM (inactive) and the GI50 (NCI-H522) was > 100 µM (inactive). For the same molecule, the GI50 (HT-29) was > 100 µM (inactive), the GI50 (Malme-3M) was > 100 µM (inactive) and the GI50 (UACC-62) was > 100 µM (inactive). The GI50 (DU-145) was > 100 µM (inactive), the GI50 (CAKI-1) was > 100 µM (inactive) and the GI50 (MDA-N) was > 100 µM (inactive). The GI50 (SF-268) was > 100 µM (inactive), the GI50 (A549) was > 100 µM (inactive) and the GI50 (SF-295) was > 100 µM (inactive). For the same molecule, the GI50 (UACC-257) was > 100 µM (inactive), the GI50 (BT-549) was > 100 µM (inactive) and the GI50 (RXF 393) was > 100 µM (inactive). For the same molecule, the GI50 (HCT-116) was > 100 µM (inactive), the GI50 (HOP-62) was > 100 µM (inactive) and the GI50 (MCF7) was > 100 µM (inactive). The GI50 (OVCAR-3) was > 100 µM (inactive), the GI50 (MOLT-4) was > 100 µM (inactive) and the GI50 (K562) was > 100 µM (inactive). For the same molecule, the GI50 (T47D) was 2.82 µM (inactive), the GI50 (RPMI-8226) was > 100 µM (inactive) and the GI50 (KM12) was > 100 µM (inactive). For the same molecule, the GI50 (HCC 2998) was > 100 µM (inactive), the GI50 (NCI/ADR-RES) was > 100 µM (inactive) and the GI50 (SR) was > 100 µM (inactive). The GI50 (PC-3) was > 100 µM (inactive), the GI50 (U-251) was > 100 µM (inactive) and the GI50 (HCT-15) was greater than 100 µM. The GI50 (LOX IMVI) was > 100 µM (inactive), the GI50 (OVCAR-8) was > 100 µM (inactive) and the GI50 (HL-60) was > 100 µM (inactive). The GI50 (OVCAR-4) was > 100 µM (inactive).
